For assay [1], the system named is IRF3 signaling pathway (IRF-inducible ISG54 promotor) in THP1-Lucia ISG cells. The assay can be described thus: THP1-Lucia ISG reporter assay: induction of IRF3-dependent luciferase activity. The assay is classed as cell-based. Conditions: Homo sapiens, 10 μM compound, PMA-differentiated cells, 18 h after stimulation, read-out: THP1 ISG: fold increase of IRF3-dependent luciferase activity over background. Here is the method:
The compounds were evaluated in the THP1-Lucia™ ISG (interferon stimulated genes) reporter assay to determine if the compounds activate the IRF3 signaling pathway. The THP1-Lucia™ cells (InvivoGen) express the secreted luciferase (Lucia) reporter gene under the control of an IRF-inducible promotor. The reporter cell line was developed from human monocytic leukemia THP-1 cells.
(§1) The promotor was comprised of five IFN-stimulated response elements (ISRE) fused to an ISG54 minimal promotor which is unresponsive to NF-kB or AP-1 pathways. […] The IRF3-deficient THP1-Lucia™ ISG IRF3 −/− reporter cell line was generated by CRISPR technology from the parent THP1-Lucia™ ISG reporter cell line.
(§2) 5 THP1-Lucia™ ISG cells and IRF3-deficient THP1-Lucia™ ISG IRF3 −/− cells were differentiated with PMA (100 ng/ml) and stimulated with compounds at the indicated concentrations (5 to 20 μM), positive control, or not treated (background). Luciferase secretion was quantified using the QUANTI-Luc luciferase assay system (InvivoGen) 18 h after stimulation. Data are shown as fold increase luciferase activity over background in Table 7 and represent the IRF3-dependent ISG54 promotor activity by the THP1-Lucia™ ISG cells in response to compounds. […] The fold increase of compounds (10 μM, *20 μM, **5 μM) induced IRF3 dependent luciferase activity is indicated as follows: “−” indicates less than 2.4 fold increase; “+” indicates a 2.4-4.9 fold increase; “++” indicates a 5-9.9 fold increase; “+++” indicates a 10-19 fold increase; “++++” indicates a 20-39 fold increase; “+++++” indicates greater than or equal to 40 fold increase.
(In general: A reporter such as luciferase makes a cellular process visible.)

Assay [2] has as its system RIG-I deficient CT26 RIG-1−/− cells. The assay can be described thus: CXCL10 secretion in RIG-I deficient CT26 RIG-1−/− cells (ELISA). It is filed as cell-based, murine. The conditions noted are these: 24 h. As to the method: (§3) The CT26 murine colon carcinoma cell line (ATCC) was used to evaluate the induction of CXCL10 secretion. CXCL10 is an important chemokine in tumor immune biology that recruits tumor-specific T cells to the tumor. To confirm that compound-mediated CXCL10 production was RIG-I specific, RIG-I deficient CT2-RIG-1−/− cells were generated by Kineta using CRISPR technology.
(§4) CT26 cells were seeded at a density of 1×10^4 cells per well on a 96-well tissue culture plate in 100 μL of cell culture and cells were incubated at 37° C. and 5% CO2 for 24 hr. Next, CT26 cells were treated with compounds at the indicated concentrations. CXCL10 was quantified by ELISA from supernatants taken 24 h after compound stimulation by use of the CXCL10 DuoSet ELISA kit (Cat # DY466, R&D, Minneapolis, Minn., USA) according to the manufacturer's instructions.
(§5) CXCL10 secretion by CT26 cells in response to compounds (in an amount of 5 to 20 μM) of the present disclosure is shown in Table 8. The compound-induced CXCL10 production was RIG-I dependent, since none of the compounds mediated CXCL10 secretion in RIG-I deficient CT26 RIG-1−/− cells. The compounds (10 μM, *20 μM, **5 μM) are indicated in the table as follows: “−” indicates less than 100 pg/mL; “+” indicates 100-199 pg/mL; “++” indicates 200-399 pg/mL; “+++” indicates 400-799 pg/mL; “++++” indicates 800 to 1599 pg/mL; “+++++” indicates greater than or equal to 1600 pg/ml.

Assay [3] relates to THP1-Lucia ISG IRF3 −/− cells. The assay can be described thus: IRF3-deficient THP1-Lucia ISG IRF3 −/− reporter assay (counter-screen). The assay is classed as cell-based. Conditions: Homo sapiens, 10 μM compound, 18 h after stimulation, read-out: THP1 ISG IRF3 −/−: fold increase of luciferase activity over background. As to the method: as §1, §2
Assay [4] deals with CXCL10 secretion by CT26 cells. The assay can be described thus: RIG-I dependent CXCL10 secretion by CT26 colon carcinoma cells (ELISA). The conditions noted are these: 24 h. It is filed as cell-based, murine. Here is the method: as §3, §4, §5

Marks after values point to notes of the source that are not given here.

With `CS(=O)(=O)c1ccc2nc(NC(=O)c3ccc4ccccc4c3)sc2c1` [Example 1, N-(6-methanesulfonyl-1,3-benzothiazol-2-yl)naphthalene-2-carboxamide], the fold induction at 10 µM in assay [1] was 10 to 19; in assay [3] it was less than 2.4. Also, the “CXCL10 secretion by CT26 RIG-I −/− cells” value in assay [2] (10 μM compound) is “− (“−” indicates less than 100 pg/mL)”. Also, the “CXCL10 secretion by CT26 cells” value in assay [4] (10 μM compound) is recorded as “++++ (“++++” indicates 800 to 1599 pg/mL)”.

On to `COC(=O)c1ccc2nc(NC(=O)c3ccc4ccccc4c3)sc2c1` [Example 2, methyl 2-(naphthalene-2-amido)-1,3-benzothiazole-6-carboxylate], for which the fold induction at 10 µM in assay [1] was not below 40; in assay [3], less than 2.4. Moreover, the “CXCL10 secretion by CT26 RIG-I −/− cells” value in assay [2] (10 μM compound) is “− (“−” indicates less than 100 pg/mL)”. Besides, the “CXCL10 secretion by CT26 cells” value in assay [4] (10 μM compound) is listed as “++++ (“++++” indicates 800 to 1599 pg/mL)”.

Turning to `O=C(Nc1nc2ccc(S(=O)(=O)N3CCOCC3)cc2s1)c1ccc2ccccc2c1` [Example 3, N-[6-(morpholine-4-sulfonyl)-1,3-benzothiazol-2-yl]naphthalene-2-carboxamide], the fold induction at 10 µM in assay [1] was 10 to 19; in assay [3] it was less than 2.4. Also, the “CXCL10 secretion by CT26 RIG-I −/− cells” value in assay [2] (10 μM compound) is “− (“−” indicates less than 100 pg/mL)”. Besides, the “CXCL10 secretion by CT26 cells” value in assay [4] (10 μM compound) is reported as “+++ (“+++” indicates 400-799 pg/mL)”.

With `O=C(Nc1nc2ccc(SC(F)F)cc2s1)c1ccc2ccccc2c1` [Example 4, N-{6-[(difluoromethyl)sulfanyl]-1,3-benzothiazol-2-yl}naphthalene-2-carboxamide], the fold induction at 10 µM is not below 40 in assay [1] and less than 2.4 in assay [3]. Further, the “CXCL10 secretion by CT26 RIG-I −/− cells” value in assay [2] (10 μM compound) is reported as “− (“−” indicates less than 100 pg/mL)”. The “CXCL10 secretion by CT26 cells” value in assay [4] (10 μM compound) was “++++ (“++++” indicates 800 to 1599 pg/mL)”.

For `O=C(Nc1nc2ccc(OCC(F)(F)F)cc2s1)c1ccc2ccccc2c1` [Example 5, N-[6-(2,2,2-trifluoroethoxy)-1,3-benzothiazol-2-yl]naphthalene-2-carboxamide], the fold induction at 10 µM in assay [1] was 2.4 to 4.9; in assay [3], less than 2.4. For the same compound, the “CXCL10 secretion by CT26 RIG-I −/− cells” value in assay [2] (10 μM compound) was “− (“−” indicates less than 100 pg/mL)”. For the same compound, the “CXCL10 secretion by CT26 cells” value in assay [4] (10 μM compound) is “+++ (“+++” indicates 400-799 pg/mL)”.

As for `O=C(Nc1ccc2nc(NC(=O)c3ccc4ccccc4c3)sc2c1)c1ccccc1` [Example 6, N-(6-benzamido-1,3-benzothiazol-2-yl)naphthalene-2-carboxamide], the fold induction at 10 µM was 20 to 39 in assay [1] and less than 2.4 in assay [3]. In addition, in assay [2] (10 μM compound), the “CXCL10 secretion by CT26 RIG-I −/− cells” value is recorded as “− (“−” indicates less than 100 pg/mL)”. Further, in assay [4] (10 μM compound), the “CXCL10 secretion by CT26 cells” value is “++ (“++” indicates 200-399 pg/mL)”.

On to `CS(=O)(=O)Nc1ccc2nc(NC(=O)c3ccc4ccccc4c3)sc2c1` [Example 7, N-(6-methanesulfonamido-1,3-benzothiazol-2-yl)naphthalene-2-carboxamide], for which the fold induction at 10 µM was 20 to 39 in assay [1] and less than 2.4 in assay [3]. Moreover, the “CXCL10 secretion by CT26 RIG-I −/− cells” value in assay [2] (10 μM compound) is listed as “− (“−” indicates less than 100 pg/mL)”. Besides, in assay [4] (10 μM compound), the “CXCL10 secretion by CT26 cells” value is “++ (“++” indicates 200-399 pg/mL)”.

As for `O=C(Nc1nc2ccc(NC(=O)C3CCCCC3)cc2s1)c1ccc2ccccc2c1` [Example 8, N-(6-cyclohexaneamido-1,3-benzothiazol-2-yl)naphthalene-2-carboxamide], the fold induction at 10 µM in assay [1] was 10 to 19; in assay [3], less than 2.4. The “CXCL10 secretion by CT26 RIG-I −/− cells” value in assay [2] (10 μM compound) is recorded as “− (“−” indicates less than 100 pg/mL)”. In addition, in assay [4] (10 μM compound), the “CXCL10 secretion by CT26 cells” value is recorded as “++++ (“++++” indicates 800 to 1599 pg/mL)”.

As for `O=C(Nc1nc2ccc(SC(F)(F)F)cc2s1)c1ccc2ccccc2c1` [Example 9, N-{6-[(trifluoromethyl)sulfanyl]-1,3-benzothiazol-2-yl}naphthalene-2-carboxamide], the fold induction at 10 µM in assay [1] is 5 to 9.9; in assay [3], less than 2.4. In addition, the “CXCL10 secretion by CT26 RIG-I −/− cells” value in assay [2] (10 μM compound) is “− (“−” indicates less than 100 pg/mL)”. Besides, the “CXCL10 secretion by CT26 cells” value in assay [4] (10 μM compound) is “+++ (“+++” indicates 400-799 pg/mL)”.

As to `O=C(Nc1nc2ccc(-c3nc4ccccc4[nH]3)cc2s1)c1ccc2ccccc2c1` [Example 10, N-[6-(1H-1,3-benzodiazol-2-yl)-1,3-benzothiazol-2-yl]naphthalene-2-carboxamide], the fold induction at 10 µM in assay [1] was 5 to 9.9; in assay [3], less than 2.4. Further, the “CXCL10 secretion by CT26 RIG-I −/− cells” value in assay [2] (10 μM compound) is “− (“−” indicates less than 100 pg/mL)”. The “CXCL10 secretion by CT26 cells” value in assay [4] (10 μM compound) is “+++ (“+++” indicates 400-799 pg/mL)”.

`O=C(Nc1nc2ccc(S(=O)(=O)N3CCCC3)cc2s1)c1cc2ccccc2cc1OCCN1CCC(F)(F)CC1` [Example 79, 3-[2-(4,4-difluoropiperidin-1-yl)ethoxy]-N-[6-(pyrrolidine-1-sulfonyl)-1,3-benzothiazol-2-yl]naphthalene-2-carboxamide]: the “CXCL10 secretion by CT26 RIG-I −/− cells” value in assay [2] (5 μM compound (**)) is “−** (“−” indicates less than 100 pg/mL)”. Further, in assay [4] (5 μM compound (**)), the “CXCL10 secretion by CT26 cells” value is “+** (“+” indicates 100-199 pg/mL)”.

With `O=C(Nc1cc2ccc(S(=O)(=O)N3CCC3)cc2s1)c1cc2ccccc2cc1OCCCCN1CCOCC1` [Example 86, N-(6-(azetidin-1-ylsulfonyl)benzo[b]thiophen-2-yl)-3-(4-morpholinobutoxy)-2-naphthamide], the fold induction at 10 µM in assay [1] is 20 to 39; in assay [3], less than 2.4.

Consider `COCC1CN(CCOc2cc3ccccc3cc2C(=O)Nc2nc3ccc(S(=O)(=O)N4CCCC4)cc3s2)CCO1` (stereo not drawn) [Example 87, 3-{2-[2-(methoxymethyl)morpholin-4-yl]ethoxy}-N-[6-(pyrrolidine-1-sulfonyl)-1,3-benzothiazol-2-yl]naphthalene-2-carboxamide], for which the fold induction at 10 µM was 20 to 39 in assay [1] and less than 2.4 in assay [3].

On to `O=C(Nc1nc2ccc(S(=O)(=O)N3CCCC3)cc2s1)c1cc2ccccc2cc1OCCN1CC2CCC1CO2` (stereo not drawn) [Example 88, 3-(2-{2-oxa-5-azabicyclo[2.2.2]octan-5-yl}ethoxy)-N-[6-(pyrrolidine-1-sulfonyl)-1,3-benzothiazol-2-yl]naphthalene-2-carboxamide], for which the fold induction at 10 µM in assay [1] was 20 to 39; in assay [3], less than 2.4.

Consider `O=C(Nc1nc2ccc(S(=O)(=O)N3CCCC3)cc2s1)c1cc2ccccc2cc1OCCN1CC2CC(C1)O2` [Example 89, 3-(2-{6-oxa-3-azabicyclo[3.1.1]heptan-3-yl}ethoxy)-N-[6-(pyrrolidine-1-sulfonyl)-1,3-benzothiazol-2-yl]naphthalene-2-carboxamide], for which the fold induction at 10 µM in assay [1] is 10 to 19; in assay [3], less than 2.4.

Take `O=C(Nc1nc2ccc(S(=O)(=O)N3CCCC3)cc2s1)c1cc2ccccc2cc1OCCN1C[C@H]2C[C@@H]1CO2` [Example 90]: the fold induction at 10 µM in assay [1] was 20 to 39; in assay [3], less than 2.4.

With `O=C(Nc1nc2ccc(S(=O)(=O)N3CCCC3)cc2s1)c1cc2c(cc1OCCN1CCOCC1)CCC2` [Example 91, 6-[2-(morpholin-4-yl)ethoxy]-N-[6-(pyrrolidine-1-sulfonyl)-1,3-benzothiazol-2-yl]-2,3-dihydro-1H-indene-5-carboxamide], the fold induction at 10 µM in assay [1] is 10 to 19; in assay [3], less than 2.4.

Values taken from patent US20200071316A1, “ACTIVATORS OF THE RETINOIC ACID INDUCIBLE GENE "RIG-I" PATHWAY AND METHODS OF USE THEREOF” (Kineta Immuno-Oncology LLC, priority 2018, published 2020).
